Measurements as given in US9593122B2, “Substituted pyrazolylpyrazole derivative and use of same as herbicide” (KYOYU AGRI CO., LTD., priority 2013, dated 2017).

Experiments:
Assay type in all cases: in vivo
Echinochloa crus-galli = assay: Paddy herbicidal activity test; settings: irrigated paddy pot, treated at 3.5 leaf stage of Echinochloa crus-galli, 30 days
Description: (§1) Rice paddy soil was filled into a 1/10000 are pot followed by the addition of suitable amounts of water and chemical fertilizer, kneading, seeding with Echinochloa crus-galli, Monochoria vaginalis and Scirpus juncoides and maintaining in an irrigated state at a water depth of 3 cm.
(§2) Wettable powder of Target Compound (I) shown in Table 1 prepared in compliance with the preparation examples were diluted with a suitable amount of water, rice plants in the 2.0 leaf stage were transplanted during 3.5 leaf stage of Echinochloa crus-galli, and treated by dropping in chemical in the prescribed amount per are using a pipette.
(§3) After treating for 30 days in a glass greenhouse at an average atmospheric temperature of 30° C., the herbicidal efficacy thereof was investigated.
(§4) Evaluation of herbicidal efficacy was carried out by comparing growth inhibition rate (%) with an untreated group, while evaluation of phytotoxicity was carried out by comparing growth inhibition rate (%) with the state of a complete eradication group, and were evaluated at 11 levels indicated below.

Scirpus juncoides = assay: Paddy herbicidal activity test; settings: irrigated paddy pot, 30 days
Description: as §1, §2, §3, §4

Monochoria vaginalis = assay: Paddy herbicidal activity test; settings: irrigated paddy pot, 30 days
Description: as §1, §2, §3, §4

Amaranthus retroflexus [1] = assay: Weed foliar treatment test; settings: foliar spray, 3 weeks
Description: (§5) Soil was filled into a 1/6000 are pot followed by seeding with Digitaria ciliaris, Chenopodium album and Amaranthus retroflexus, covering with soil, and cultivating in a glass greenhouse at an average atmospheric temperature of 25° C.
(§6) Wettable powder of Target Compound (I) shown in Table 1 prepared in compliance with the preparation examples were diluted with water to the prescribed amount of chemical and uniformly sprayed onto the weeds using 15 liters of sprayed water per are when Digitaria ciliaris had grown to the 1.0 to 2.0 leaf stage.
(§7) After treating for 3 weeks in a glass greenhouse at an average atmospheric temperature of 25° C., the herbicidal efficacy thereof was investigated.
(§8) Evaluation of herbicidal efficacy was carried out in the same manner as the above-mentioned Test Example 1.

Digitaria ciliaris [2] = assay: Weed foliar treatment test; settings: foliar spray at 1.0 to 2.0 leaf stage of Digitaria ciliaris, 3 weeks
Description: as §5, §6, §7, §8

Chenopodium album [3] = assay: Weed foliar treatment test; settings: foliar spray, 3 weeks
Description: as §5, §6, §7, §8

Amaranthus retroflexus [4] = assay: Farming soil treatment test; settings: soil surface spray prior to weed growth, 30 days
Description: (§9) Field soil was filled into a 1/6000 are pot followed by seeding with Digitaria ciliaris, Chenopodium album and Amaranthus retroflexus and covering with soil.
(§10) Wettable powder of compounds of formula (I) shown in Table 1 prepared in compliance with the preparation examples were diluted with water to the prescribed amount of chemical and uniformly sprayed onto each soil surface layer using 10 liters of sprayed water per are prior to weed growth following seeding.
as §3
(§11) Evaluation of herbicidal efficacy is carried out in the same manner as the above-mentioned Test Example 1.

Digitaria ciliaris [5] = assay: Farming soil treatment test; settings: soil surface spray prior to weed growth, 30 days
Description: as §9, §10, §3, §11

Chenopodium album [6] = assay: Farming soil treatment test; settings: soil surface spray prior to weed growth, 30 days
Description: as §9, §10, §3, §11

| Structure (SMILES) | Echinochloa crus-galli herbicidal efficacy (growth inhibition level) (Echinochloa crus-galli; 1g a.i./10a) | Echinochloa crus-galli herbicidal efficacy (growth inhibition level) (Echinochloa crus-galli; 5g a.i./10a) | Scirpus juncoides herbicidal efficacy (growth inhibition level) (Scirpus juncoides; 1g a.i./10a) | Scirpus juncoides herbicidal efficacy (growth inhibition level) (Scirpus juncoides; 5g a.i./10a) | Monochoria vaginalis herbicidal efficacy (growth inhibition level) (Monochoria vaginalis; 1g a.i./10a) | Monochoria vaginalis herbicidal efficacy (growth inhibition level) (Monochoria vaginalis; 5g a.i./10a) | Amaranthus retroflexus herbicidal efficacy (growth inhibition level) (Amaranthus retroflexus [1]; 5g a.i./10a) | Amaranthus retroflexus herbicidal efficacy (growth inhibition level) (Amaranthus retroflexus [1]; 10g a.i./10a) | Digitaria ciliaris herbicidal efficacy (growth inhibition level) (Digitaria ciliaris [2]; 5g a.i./10a) | Digitaria ciliaris herbicidal efficacy (growth inhibition level) (Digitaria ciliaris [2]; 10g a.i./10a) | Chenopodium album herbicidal efficacy (growth inhibition level) (Chenopodium album [3]; 5g a.i./10a) | Chenopodium album herbicidal efficacy (growth inhibition level) (Chenopodium album [3]; 10g a.i./10a) | Amaranthus retroflexus herbicidal efficacy (growth inhibition level) (Amaranthus retroflexus [4]; 5g a.i./10a) | Amaranthus retroflexus herbicidal efficacy (growth inhibition level) (Amaranthus retroflexus [4]; 10g a.i./10a) | Digitaria ciliaris herbicidal efficacy (growth inhibition level) (Digitaria ciliaris [5]; 5g a.i./10a) | Digitaria ciliaris herbicidal efficacy (growth inhibition level) (Digitaria ciliaris [5]; 10g a.i./10a) | Chenopodium album herbicidal efficacy (growth inhibition level) (Chenopodium album [6]; 5g a.i./10a) | Chenopodium album herbicidal efficacy (growth inhibition level) (Chenopodium album [6]; 10g a.i./10a) |
| --- | --- | --- | --- | --- | --- | --- | --- | --- | --- | --- | --- | --- | --- | --- | --- | --- | --- | --- |
| O=[N+]([O-])c1cnn(-c2nn3c(c2Cl)CCCC3)c1NC/C=C\Cl [Compound 32] | 8 (8: 80% to less than 90%) | 9 (9: 90% to less than 100%) | 8 (8: 80% to less than 90%) | 10 (10: 100%) | 9 (9: 90% to less than 100%) | 10 (10: 100%) | 10 (10: 100%) | 10 (10: 100%) | 10 (10: 100%) | 10 (10: 100%) | 10 (10: 100%) | 10 (10: 100%) | 10 (10: 100%) | 10 (10: 100%) | 10 (10: 100%) | 10 (10: 100%) | 10 (10: 100%) | – |
| C=C(Cl)CNc1c([N+](=O)[O-])cnn1-c1nn2c(c1Cl)CCCC2 [Compound 30] | 9 (9: 90% to less than 100%) | 10 (10: 100%) | 8 (8: 80% to less than 90%) | 10 (10: 100%) | 9 (9: 90% to less than 100%) | 10 (10: 100%) | 10 (10: 100%) | 10 (10: 100%) | 10 (10: 100%) | 10 (10: 100%) | 10 (10: 100%) | 10 (10: 100%) | 10 (10: 100%) | 10 (10: 100%) | 10 (10: 100%) | 10 (10: 100%) | 10 (10: 100%) | 10 (10: 100%) |
| CC=CCNc1c(C#N)cnn1-c1nn2c(c1Cl)CCCC2 (mixture of isomers) [Compound 12] | 9 (9: 90% to less than 100%) | 10 (10: 100%) | 8 (8: 80% to less than 90%) | 9 (9: 90% to less than 100%) | 9 (9: 90% to less than 100%) | 10 (10: 100%) | 10 (10: 100%) | 10 (10: 100%) | 10 (10: 100%) | 10 (10: 100%) | 10 (10: 100%) | 10 (10: 100%) | 10 (10: 100%) | 10 (10: 100%) | 10 (10: 100%) | 10 (10: 100%) | 10 (10: 100%) | 10 (10: 100%) |
| N#Cc1cnn(-c2nn3c(c2Cl)CCCC3)c1N(C/C=C\Cl)C(=O)C(F)(F)F [Compound 21] | 9 (9: 90% to less than 100%) | 9 (9: 90% to less than 100%) | 8 (8: 80% to less than 90%) | 10 (10: 100%) | 9 (9: 90% to less than 100%) | 9 (9: 90% to less than 100%) | 10 (10: 100%) | 10 (10: 100%) | 10 (10: 100%) | 10 (10: 100%) | 10 (10: 100%) | 10 (10: 100%) | 10 (10: 100%) | 10 (10: 100%) | 10 (10: 100%) | 10 (10: 100%) | 10 (10: 100%) | 10 (10: 100%) |
| CC(C)=CCNc1c([N+](=O)[O-])cnn1-c1nn2c(c1Cl)CCCC2 [Compound 35] | 9 (9: 90% to less than 100%) | 9 (9: 90% to less than 100%) | 8 (8: 80% to less than 90%) | 10 (10: 100%) | 9 (9: 90% to less than 100%) | 10 (10: 100%) | – | – | – | – | – | – | – | – | – | – | – | – |
| C=CCCNc1c(C#N)cnn1-c1nn2c(c1Cl)CCCC2 [Compound 5] | 9 (9: 90% to less than 100%) | 10 (10: 100%) | 7 (7: 70% to less than 80%) | 8 (8: 80% to less than 90%) | 9 (9: 90% to less than 100%) | 9 (9: 90% to less than 100%) | – | – | – | – | – | – | – | – | – | – | – | – |
| N#Cc1cnn(-c2nn3c(c2Cl)CCCC3)c1N(CCC(F)=C(F)F)C(=O)C(F)(F)F [Compound 20] | 9 (9: 90% to less than 100%) | 9 (9: 90% to less than 100%) | 8 (8: 80% to less than 90%) | 8 (8: 80% to less than 90%) | 8 (8: 80% to less than 90%) | 9 (9: 90% to less than 100%) | – | – | – | – | – | – | – | – | – | – | – | – |
| CC=CCNc1c(C#N)cnn1-c1nn2c(c1Br)CCCC2 (mixture of isomers) [Compound 47] | 9 (9: 90% to less than 100%) | 10 (10: 100%) | 7 (7: 70% to less than 80%) | 8 (8: 80% to less than 90%) | 8 (8: 80% to less than 90%) | 9 (9: 90% to less than 100%) | – | – | – | – | – | – | – | – | – | – | – | – |
| C=C(Cl)CN(C(=O)C(F)(F)F)c1c(C#N)cnn1-c1nn2c(c1Br)CCCC2 [Compound 51] | 9 (9: 90% to less than 100%) | 9 (9: 90% to less than 100%) | 8 (8: 80% to less than 90%) | 8 (8: 80% to less than 90%) | 8 (8: 80% to less than 90%) | 8 (8: 80% to less than 90%) | – | – | – | – | – | – | – | – | – | – | – | – |
